Reference: patent US20250011368A1, “DLL3 TARGETING PEPTIDES AND CONSTRUCTS THEREOF” (MARIANA ONCOLOGY INC., priority 2023, published 2025)
Numbered stars: 1 amine (or outer) side, 2 acyl side, 3 side chain; on linkers, the order of the positions; unused ones are H or OH. Bridge positions count the residues as written; N and C are the ends. Square brackets hold non-standard residues; d marks the D form. Side chains are listed from the residue outwards. Peptide text beside a SMILES is read from it. * marks the point of attachment. X4 = O=C(O)CN1CCN(CC(=O)O)CCN(CC(=O)N[C@H]2CC[C@H](CC(=O)*)CC2)CCN(CC(=O)O)CC1; X9 = O=C(O)CN1CCN(CC(=O)O)CCN(CC(=O)NCCCOCCOCCOCCCN*)CCN(CC(=O)O)CC1; DOTA = O=C(O)CN1CCN(CC(=O)O)CCN(CC(=O)*)CCN(CC(=O)O)CC1; Trp(7-Me) = Cc1cccc2c(C[C@H](N)C(=O)O)c[nH]c12; Trp(7-aza) = N[C@@H](Cc1c[nH]c2ncccc12)C(=O)O; γGlu = O=C(O)[C@H](CCC(=O)[*:2])N[*:1]; 2Nal = N[C@@H](Cc1ccc2ccccc2c1)C(=O)O; Nva(3-Et) = CCC(CC)[C@H](N)C(=O)O; Cha = N[C@@H](CC1CCCCC1)C(=O)O; Chg = N[C@H](C(=O)O)C1CCCCC1; Suc = O=C(CCC(=O)[*:2])[*:1]

Target: T1, human DLL3 (Homo sapiens, UniProt Q9NYJ7)
T1 sequence (Q9NYJ7 27-618): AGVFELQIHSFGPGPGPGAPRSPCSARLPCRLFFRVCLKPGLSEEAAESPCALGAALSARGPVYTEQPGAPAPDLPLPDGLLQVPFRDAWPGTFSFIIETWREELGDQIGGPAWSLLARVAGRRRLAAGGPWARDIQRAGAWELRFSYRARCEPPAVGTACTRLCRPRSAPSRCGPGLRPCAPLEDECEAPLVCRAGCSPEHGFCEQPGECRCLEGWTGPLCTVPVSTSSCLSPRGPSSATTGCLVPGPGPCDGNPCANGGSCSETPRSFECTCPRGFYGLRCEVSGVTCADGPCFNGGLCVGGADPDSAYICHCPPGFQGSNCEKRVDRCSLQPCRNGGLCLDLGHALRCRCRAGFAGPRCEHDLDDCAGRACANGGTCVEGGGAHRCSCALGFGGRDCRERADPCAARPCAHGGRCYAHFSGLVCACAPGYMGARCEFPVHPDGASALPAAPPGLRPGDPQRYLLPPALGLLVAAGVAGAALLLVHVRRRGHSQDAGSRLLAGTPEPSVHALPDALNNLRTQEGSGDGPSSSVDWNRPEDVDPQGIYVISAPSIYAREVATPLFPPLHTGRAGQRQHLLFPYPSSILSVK
Assay: Affinity determination by Surface Plasmon Resonance (SPR)
Type: binding
Conditions: 25° C., biotinylated human DLL3 immobilized on streptavidin sensor chip, 1:1 binding model; read-out: SPR KD
How it was run: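 Biotinylated human DLL3 was captured on a streptavidin chip with a reference surface. Compounds at several concentrations were injected at 100 μL/minute in phosphate buffer (137 mM NaCl, 2.7 mM KCl, 0.05% P20, 2% DMSO). Affinity and kinetics came from 1:1 model fits of the sensorgrams.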

Kd [nM] | SMILES
< 1 | CCC(CC)[C@H](NC(=O)[C@@H](NC(=O)[C@H](Cc1c[nH]c2ccccc12)NC(C)=O)[C@@H](C)O)C(=O)N[C@H]1CSSC[C@@H](C(=O)N[C@@H](Cc2c[nH]c3ncccc23)C(=O)N2CCC[C@H]2C(=O)N[C@H](CCCCNC(=O)CN2CCN(CC(=O)O)CCN(CC(=O)O)CCN(CC(=O)O)CC2)C(N)=O)NC(=O)[C@H](CC(=O)O)NC(=O)[C@H](Cc2cnc[nH]2)NC(=O)[C@H](Cc2ccc3ccccc3c2)NC(=O)[C@H](CC(N)=O)NC(=O)[C@H](C)NC1=O [compound 196, Ac-W-T-(Env)-C(3)-A-N-(2Nal)-H-D-C(3)-(7-Aza-W)-P-[D-Lys(DOTA)]-NH2] (Ac-WT[Nva(3-Et)]CAN[2Nal]HDC[Trp(7-aza)]P[dK](DOTA)-NH2; disulfide 4-10)
< 1 | CC(=O)N[C@@H](Cc1c[nH]c2ccccc12)C(=O)N[C@H](C(=O)N[C@H](C(=O)N[C@H]1CSSC[C@@H](C(=O)N[C@@H](Cc2c[nH]c3ncccc23)C(=O)N2CCC[C@H]2C(=O)N[C@H](CCCCNC(=O)CN2CCN(CC(=O)O)CCN(CC(=O)O)CCN(CC(=O)O)CC2)C(N)=O)NC(=O)[C@H](CC(=O)O)NC(=O)[C@H](Cc2cnc[nH]2)NC(=O)[C@H](Cc2ccc3ccccc3c2)NC(=O)[C@H](C)NC(=O)[C@H](CC(N)=O)NC1=O)C1CCCCC1)[C@@H](C)O [compound 197, Ac-W-T-(Chg)-C(3)-N-A-(2Nal)-H-D-C(3)-(7-Aza-W)-P-[D-Lys(DOTA)]-NH2] (Ac-WT[Chg]CNA[2Nal]HDC[Trp(7-aza)]P[dK](DOTA)-NH2; disulfide 4-10)
< 1 | CC(=O)N[C@@H](Cc1c[nH]c2ccccc12)C(=O)N[C@H](C(=O)N[C@@H](CC1CCCCC1)C(=O)N[C@H]1CSSC[C@@H](C(=O)N[C@@H](Cc2c[nH]c3ncccc23)C(=O)N2CCC[C@H]2C(=O)N[C@H](CCCCNC(=O)CN2CCN(CC(=O)O)CCN(CC(=O)O)CCN(CC(=O)O)CC2)C(N)=O)NC(=O)[C@H](CC(=O)O)NC(=O)[C@H](Cc2cnc[nH]2)NC(=O)[C@H](Cc2ccc3ccccc3c2)NC(=O)[C@H](C)NC(=O)[C@H](CC(N)=O)NC1=O)[C@@H](C)O [compound 198, Ac-W-T-(CHA)-C(3)-N-A-(2Nal)-H-D-C(3)-(7-Aza-W)-P-[D-Lys(DOTA)]-NH2] (Ac-WT[Cha]CNA[2Nal]HDC[Trp(7-aza)]P[dK](DOTA)-NH2; disulfide 4-10)
< 1 | CCC(CC)[C@H](NC(=O)[C@@H](NC(=O)[C@H](Cc1c[nH]c2ccccc12)NC(C)=O)[C@@H](C)O)C(=O)N[C@H]1CSSC[C@@H](C(=O)N[C@@H](Cc2c[nH]c3ncccc23)C(=O)N2CCC[C@H]2C(=O)N[C@H](CCCCNC(=O)CN2CCN(CC(=O)O)CCN(CC(=O)O)CCN(CC(=O)O)CC2)C(N)=O)NC(=O)[C@H](CC(=O)O)NC(=O)[C@H](Cc2c[nH]cn2)NC(=O)[C@H](Cc2ccc3ccccc3c2)NC(=O)[C@H](C)NC(=O)[C@H](CC(N)=O)NC1=O [compound 199, Ac-W-T-(Env)-C(3)-N-A-(2Nal)-H-D-C(3)-(7-Aza-W)-P-[D-Lys(DOTA)]-NH2] (Ac-WT[Nva(3-Et)]CNA[2Nal]HDC[Trp(7-aza)]P[dK](DOTA)-NH2; disulfide 4-10)
1 to 10 | CCC(CC)[C@H](NC(=O)[C@@H](NC(=O)[C@H](Cc1c[nH]c2ccccc12)NC(C)=O)[C@@H](C)O)C(=O)N[C@H]1CSSC[C@@H](C(=O)N[C@@H](Cc2c[nH]c3ncccc23)C(=O)N2CCC[C@H]2C(=O)N[C@H](CCCCNC(=O)C[C@H]2CC[C@H](NC(=O)CN3CCN(CC(=O)O)CCN(CC(=O)O)CCN(CC(=O)O)CC3)CC2)C(N)=O)NC(=O)[C@H](CC(=O)O)NC(=O)[C@H](Cc2cnc[nH]2)NC(=O)[C@H](Cc2ccc3ccccc3c2)NC(=O)[C@H](CC(N)=O)NC(=O)[C@H](CC(N)=O)NC1=O [compound 202, Ac-W-T-(Env)-C(3)-N-N-(2Nal)-H-D-C(3)-(7-Aza-W)-P-[D-Lys(Chx-DOTA)]-NH2] (Ac-WT[Nva(3-Et)]CNN[2Nal]HDC[Trp(7-aza)]P[dK](X4)-NH2; disulfide 4-10)
< 1 | CC(=O)N[C@@H](Cc1c[nH]c2ccccc12)C(=O)N[C@H](C(=O)N[C@H](C(=O)N[C@H]1CSSC[C@@H](C(=O)N[C@@H](Cc2c[nH]c3ncccc23)C(=O)N2CCC[C@H]2C(=O)N[C@H](CCCCNC(=O)C[C@H]2CC[C@H](NC(=O)CN3CCN(CC(=O)O)CCN(CC(=O)O)CCN(CC(=O)O)CC3)CC2)C(N)=O)NC(=O)[C@H](CC(=O)O)NC(=O)[C@H](Cc2cnc[nH]2)NC(=O)[C@H](Cc2ccc3ccccc3c2)NC(=O)[C@H](CC(N)=O)NC(=O)[C@H](CC(N)=O)NC1=O)C1CCCCC1)[C@@H](C)O [compound 203, Ac-W-T-(Chg)-C(3)-N-N-(2Nal)-H-D-C(3)-(7-Aza-W)-P-[D-Lys(Chx-DOTA)]-NH2] (Ac-WT[Chg]CNN[2Nal]HDC[Trp(7-aza)]P[dK](X4)-NH2; disulfide 4-10)
< 1 | CCC(CC)[C@H](NC(=O)[C@@H](NC(=O)[C@H](Cc1c[nH]c2ccccc12)NC(C)=O)[C@@H](C)O)C(=O)N[C@H]1CSSC[C@@H](C(=O)N[C@@H](Cc2c[nH]c3ncccc23)C(=O)N2CCC[C@H]2C(=O)N[C@H](CCCCNC(=O)CCC(=O)NCCCOCCOCCOCCCNC(=O)CN2CCN(CC(=O)O)CCN(CC(=O)O)CCN(CC(=O)O)CC2)C(N)=O)NC(=O)[C@H](CC(=O)O)NC(=O)[C@H](Cc2c[nH]cn2)NC(=O)[C@H](Cc2ccc3ccccc3c2)NC(=O)[C@H](CC(N)=O)NC(=O)[C@H](CC(N)=O)NC1=O [compound 204, Ac-W-T-(Env)-C(3)-N-N-(2Nal)-H-D-C(3)-(7-Aza-W)-P-[D-Lys(G-G-TTDS-DOTA)]-NH2] (Ac-WT[Nva(3-Et)]CNN[2Nal]HDC[Trp(7-aza)]P[dK]([Suc-X9])-NH2; disulfide 4-10)
< 1 | CC[C@H](C)[C@H](NC(=O)[C@@H](NC(=O)[C@H](Cc1c[nH]c2c(C)cccc12)NC(C)=O)[C@@H](C)O)C(=O)N[C@H]1CSSC[C@@H](C(=O)N[C@@H](Cc2c[nH]c3ccccc23)C(=O)N2CCC[C@H]2C(=O)N[C@H](CCCCNC(=O)CN2CCN(CC(=O)O)CCN(CC(=O)O)CCN(CC(=O)O)CC2)C(N)=O)NC(=O)[C@H](CC(=O)O)NC(=O)[C@H](Cc2cnc[nH]2)NC(=O)[C@H](Cc2ccc3ccccc3c2)NC(=O)[C@H](CC(N)=O)NC(=O)[C@H](CC(N)=O)NC1=O [compound 206, Ac-(7-Me-W)-T-I-C(3)-N-N-(2Nal)-H-D-C(3)-W-P-[D-Lys(DOTA)]-NH2] (Ac-[Trp(7-Me)]TICNN[2Nal]HDCWP[dK](DOTA)-NH2; disulfide 4-10)
< 1 | CC[C@H](C)[C@H](NC(=O)[C@@H](NC(=O)[C@H](Cc1c[nH]c2c(C)cccc12)NC(C)=O)[C@@H](C)O)C(=O)N[C@H]1CSSC[C@@H](C(=O)N[C@@H](Cc2c[nH]c3ccccc23)C(=O)N2CCC[C@H]2C(=O)N[C@H](CCCCNC(=O)CC[C@H](NC(=O)CC[C@H](NC(=O)CC[C@H](NC(=O)CN2CCN(CC(=O)O)CCN(CC(=O)O)CCN(CC(=O)O)CC2)C(=O)O)C(=O)O)C(=O)O)C(N)=O)NC(=O)[C@H](CC(=O)O)NC(=O)[C@H](Cc2cnc[nH]2)NC(=O)[C@H](Cc2ccc3ccccc3c2)NC(=O)[C@H](CC(N)=O)NC(=O)[C@H](CC(N)=O)NC1=O [compound 207, Ac-(7-Me-W)-T-I-C(3)-N-N-(2Nal)-H-D-C(3)-W-P-[D-Lys(gE-gE-gE-DOTA)]-NH2] (Ac-[Trp(7-Me)]TICNN[2Nal]HDCWP[dK]([γGlu-γGlu-γGlu-DOTA])-NH2; disulfide 4-10)
< 1 | CC[C@H](C)[C@H](NC(=O)[C@@H](NC(=O)[C@H](Cc1c[nH]c2ccccc12)NC(C)=O)[C@@H](C)O)C(=O)N[C@H]1CSSC[C@@H](C(=O)N[C@@H](Cc2c[nH]c3ccccc23)C(=O)N2CCC[C@H]2C(=O)N[C@H](CCCCNC(=O)CN2CCN(CC(=O)O)CCN(CC(=O)O)CCN(CC(=O)O)CC2)C(N)=O)NC(=O)[C@H](CC(=O)O)NC(=O)[C@H](Cc2cnc[nH]2)NC(=O)[C@H](Cc2ccc3ccccc3c2)NC(=O)[C@H](CC(N)=O)NC(=O)[C@H](CO)NC1=O [compound 208, Ac-W-T-I-C(3)-(Ser)-N-(2Nal)-H-D-C(3)-W-P-[D-Lys(DOTA)]-NH2] (Ac-WTICSN[2Nal]HDCWP[dK](DOTA)-NH2; disulfide 4-10)
< 1 | CC[C@H](C)[C@H](NC(=O)[C@@H](NC(=O)[C@H](Cc1c[nH]c2ccccc12)NC(C)=O)[C@@H](C)O)C(=O)N[C@H]1CSSC[C@@H](C(=O)N[C@@H](Cc2c[nH]c3ccccc23)C(=O)N2CCC[C@H]2C(=O)N[C@H](CCCCNC(=O)CN2CCN(CC(=O)O)CCN(CC(=O)O)CCN(CC(=O)O)CC2)C(N)=O)NC(=O)[C@H](CC(=O)O)NC(=O)[C@H](Cc2cnc[nH]2)NC(=O)[C@H](Cc2ccc3ccccc3c2)NC(=O)[C@H](CC(=O)O)NC(=O)[C@H](CC(N)=O)NC1=O [compound 209, Ac-W-T-I-C(3)-N-(Asp)-(2Nal)-H-D-C(3)-W-P-[D-Lys(DOTA)]-NH2] (Ac-WTICND[2Nal]HDCWP[dK](DOTA)-NH2; disulfide 4-10)
